Reference: patent publication US6503943B1, “Platinum complex, its preparation and therapeutic application” (priority 1998, dated 2003)
Values joined by “and” are separate entries in the source; they are usually repeats but may differ in a detail not shown here. Equal entries are not always repeated.

Key:
leucaemia L1210 [1] = test: Antitumor effect at animals with leucaemia L1210, single administration (Example 4); type: in vivo, mice DBA2; settings: mouse, in vivo
leucaemia L1210 [2] = test: Antitumor effect at animals with leucaemia L1210, intermitent administration 3x (Example 5); type: in vivo, mice DBA2; settings: for Survival (in % of control) / Survival time, Geom. mean: 1st, 5th and 9th day
leucaemia L1210 [3] = test: Antitumor effect at animals with leucaemia L1210, continual versus intermitent regimen (Example 6); type: in vivo, mice DBA2
leucaemia L1210 [4] = test: Antitumor effect at animals with leucaemia L1210, continual regimen (Example 7); type: in vivo, mice DBA2; settings: for Survival (in % of control) / Survival time, Geom. mean: 1th-9th day
Gardner lymphosarcoma = test: Antitumor effect at animals with solid form of Gardner lymphosarcoma (Example 8); type: in vivo, mice C3H; settings: 5th day, tumors weighed 14th day
[5] = system: mammal adenocarcinoma MC2111; test: Antitumor effect at animals with solid form of mammal adenocarcinoma MC2111 (Example 9); type: in vivo, mice DBA1; settings: for Tumor mass (%) of control / Tumor mass, Arithm. mean: 5th-13 day, tumor size 14th day, mass from regression
[6] = system: ascitic form of Ehrlich tumor (ATE); test: Antitumor effect at animals with ascitic form of Ehrlich tumor (ATE) (Example 10); type: in vivo, mice ICR; settings: for Survival (in % of control) / Survival time, Geom. mean / Tumor mass (%) of control / Tumor mass, Arithm. mean: 1st-9th day; for Tumor mass (%) of control / Tumor mass, Arithm. mean: dissection 10th day
[7] = system: ascitic form of Ehrlich tumor (ATE); test: Antitumor effect at animals with ascitic form of Ehrlich tumor (ATE) (Example 11);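 as to all read-outs here: half of each dose group killed on day 10, tumor mass taken as animal mass lost on ascites aspiration, ascitocrit by microhematocrit centrifuge, rest followed daily for survival versus reference group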; settings: for Survival (in % of control) / Survival time, Geom. mean / Total ascitocrit (%) of control / Total ascitocrit (mass of cell fraction of a tumor), Arithm. mean / Tumor mass (%) of control / Tumor mass, Arithm. mean: 1th-9th day; for Total ascitocrit (%) of control / Total ascitocrit (mass of cell fraction of a tumor), Arithm. mean / Tumor mass (%) of control / Tumor mass, Arithm. mean: dissection 10th day
Procedure: After termination of application, one half of animals in each dosage group was destroyed at 10th day after inoculation in ether narcosis, the ascits were sucked out after laparotomy and the mass of a tumor at each of the animals was determined from the difference of mass before and after sucking out the ascit. Ascitocrit in ascitic liquor of single animals was determined on microhematocrit centrifuge in heparinized capillary tubes of 75 mm length. The value of “total ascitocrit”corresponding to a mass of cells in ascitic liquor has been determined from percentage of ascitocrit and mass of the tumor. Remaining animals were left for monitoring the survival time. In these animals, the survival time was monitored on daily basis. The dependence of the survival time value on the applied dose was evaluated in comparison with the reference group.
The single estimated time points as biological responses were evaluated by a test of equivalence of two mean values (Student's t-test). Geometric mean was calculated from single values of survival time, arithmetic means were calculated from single values of tumor mass and total ascitocrit. Difference between mean values was evaluated by a test of equivalence of two mean values (Student's t-test) under presumption of normal probability distribution of mass values as well as of total ascitocrit values and of logarithmic/normal distribution of temporal values, all under presumption of possible unknown disseminations. Those diferences in mean values, whose values of a test criterium exceeded the critical value at the 5% and 1% significance level were evaluated as statistically significant and highly statistically significant, respectively.
The optimum dosage has been calculated from values of survival time according to the proportional risk model of Cox (Carter et al., 1982). Parameters of Weinbull distribution and logarithmic transformation of introductory data were used for estimation of a basic and modified survival function from experimental data.

[8] = 9 mg/kg/day p.o. 3x, 1,5,9th day (lowest dose group)
[9] = 12 mg/kg/day p.o. 9x, 1-9th day
[10] = 18 mg/kg/day p.o. 3x, 1,5,9th day
[11] = 36 mg/kg/day p.o. 3x, 1,5,9th day

`CC(=O)[O-].CC(=O)[O-].N.NC12CC3CC(CC(C3)C1)C2.[Cl-].[Cl-].[Pt+4]` [LA-12, Af-bis (Acetato)-b-(1-Adamantylamine)-c-ammin-de-dichloroplatinum (IV) Complex] was tested, and the “Increase of mean value of survival time in comparison with the untreated control group” value (leucaemia L1210 [1]) was 55%, the “Survival (in % of control)” value (leucaemia L1210 [2]; 2 mg/kg/day p.o. 3x) was greater than 121% and the “Survival time, Geom. mean” value (leucaemia L1210 [2]; 2 mg/kg/day p.o. 3x) was 19.0 days. The “Survival (in % of control)” value (leucaemia L1210 [2]; 4 mg/kg/day p.o. 3x) was 147%, the “Survival time, Geom. mean” value (leucaemia L1210 [2]; 4 mg/kg/day p.o. 3x) was 23.0 days and the “Survival (in % of control)” value (leucaemia L1210 [2]; 4 mg/kg/day p.o. 3x, listed as LA-] 2) was 148%. For the same compound, the “Survival (in % of control)” value (leucaemia L1210 [2]; 8 mg/kg/day p.o. 3x) was 118%, the “Survival time, Geom. mean” value (leucaemia L1210 [2]; 8 mg/kg/day p.o. 3x) was 18.5 days and the “Optimum dose as calculated according to Carter” value (leucaemia L1210 [2]; intermitent oral administration 3x) was 4.55 mg/kg/day p.o.×3. The “Survival (in % of control)” value (leucaemia L1210 [3]; 3 mg/kg/day p.o. 9x, 1-9th day) was 96%, the “Survival time, Geom. mean” value (leucaemia L1210 [3]; 3 mg/kg/day p.o. 9x, 1-9th day) was 11.1 days and the “Increase of survival time value in comparison with the control group” value (leucaemia L1210 [3]; 6 mg/kg p.o.×9) was 130%. The “Survival (in % of control)” value (leucaemia L1210 [3]; 6 mg/kg/day p.o. 9x, 1-9th day) was 230%, the “Survival time, Geom. mean” value (leucaemia L1210 [3]; 6 mg/kg/day p.o. 9x, 1-9th day) was 16.6 days and the “Survival (in % of control)” value (leucaemia L1210 [3]; [8]) was 115%. For the same compound, the “Survival time, Geom. mean” value (leucaemia L1210 [3]; [8]) was 13.3 days, the “Survival (in % of control)” value (leucaemia L1210 [3]; [9]) was 118% and the “Survival time, Geom. mean” value (leucaemia L1210 [3]; [9]) was 13.6 days. The “Survival (in % of control)” value (leucaemia L1210 [3]; [10]) was 158%, the “Survival time, Geom. mean” value (leucaemia L1210 [3]; [10]) was 18.3 days and the “Survival (in % of control)” value (leucaemia L1210 [3]; [11]) was 137%. For the same compound, the “Survival time, Geom. mean” value (leucaemia L1210 [3]; [11]) was 15.9 days, the “Evaluation of antitumor effect (survival time versus control), in words” value (leucaemia L1210 [3]; LA-12 6 mg/kg p.o.×9, Platidiam 8 and 4 mg/kg s.c.×1, LA-2 any of the dosage groups) was “antitumor effective” and the “Survival (in % of control)” value (leucaemia L1210 [4]; 3 mg/kg/day p.o. 9x) was 198%. The “Survival time, Geom. mean” value (leucaemia L1210 [4]; 3 mg/kg/day p.o. 9x) was 44.6 days, the “Survival (in % of control)” value (leucaemia L1210 [4]; 6 mg/kg/day p.o. 9x) was 172% and the “Survival time, Geom. mean” value (leucaemia L1210 [4]; 6 mg/kg/day p.o. 9x) was 38.8 days. For the same compound, the “Survival (in % of control)” value (leucaemia L1210 [4]; 12 mg/kg/day p.o. 9x) was 210%, the “Survival time, Geom. mean” value (leucaemia L1210 [4]; 12 mg/kg/day p.o. 9x) was 47.2 days and the “Evaluation of antitumor effect (survival time versus control), in words” value (leucaemia L1210 [4]; in the dosages used, p.o.×9) was “antitumor effective”. For the same compound, the “Increase of survival time value in comparison with the control group” value (leucaemia L1210 [4]; in the dosages used, p.o.×9) was 130%, the “Tumor mass (%) of control” value (Gardner lymphosarcoma; 2 mg/kg p.o. 1x) was 80% and the “Tumor mass, Arithm. mean” value (Gardner lymphosarcoma; 2 mg/kg p.o. 1x) was 5.02 g. The “Tumor mass (%) of control” value (Gardner lymphosarcoma; 8 mg/kg p.o. 1x) was 88%, the “Tumor mass, Arithm. mean” value (Gardner lymphosarcoma; 8 mg/kg p.o. 1x) was 5.46 g and the “Tumor mass (%) of control” value (Gardner lymphosarcoma; 32 mg/kg p.o. 1x) was 77%. The “Tumor mass, Arithm. mean” value (Gardner lymphosarcoma; 32 mg/kg p.o. 1x) was 4.80 g, the “Tumor mass (%) of control” value ([5]; 3 mg/kg/day p.o. 9x) was 86% and the “Tumor mass, Arithm. mean” value ([5]; 3 mg/kg/day p.o. 9x) was 4.02 g. For the same compound, the “Tumor mass (%) of control” value ([5]; 6 mg/kg/day p.o. 9x) was 80%, the “Tumor mass, Arithm. mean” value ([5]; 6 mg/kg/day p.o. 9x) was 3.73 g and the “Tumor mass (%) of control” value ([5]; 12 mg/kg/day p.o. 9x) was 87%. The “Tumor mass, Arithm. mean” value ([5]; 12 mg/kg/day p.o. 9x) was 4.05 g, the “Survival (in % of control)” value ([5]; mouse, in vivo) was 116% and 117% and the “Survival time, Geom. mean” value ([5]; mouse, in vivo) was 25.1 days and 25.3 days and 27.7 days. The “Evaluation of antitumor effect, in words” value ([5]; p.o.×9 12, 6, 3 mg/kg/day, Platidiam 8 and 4 mg/kg s.c. once) was “antitumor effective”, the “Survival (in % of control)” value ([6]; 3 mg/kg/day p.o. 9x) was 157% and the “Survival time, Geom. mean” value ([6]; 3 mg/kg/day p.o. 9x) was 18.0 days. The “Tumor mass (%) of control” value ([6]; 3 mg/kg/day p.o. 9x) was 104%, the “Tumor mass, Arithm. mean” value ([6]; 3 mg/kg/day p.o. 9x) was 2.76 g and the “Survival (in % of control)” value ([6]; 6 mg/kg/day p.o. 9x) was 219%. The “Survival time, Geom. mean” value ([6]; 6 mg/kg/day p.o. 9x) was 25.1 days, the “Tumor mass (%) of control” value ([6]; 6 mg/kg/day p.o. 9x) was 100% and the “Tumor mass, Arithm. mean” value ([6]; 6 mg/kg/day p.o. 9x) was 2.66 g. The “Survival (in % of control)” value ([6]; 12 mg/kg/day p.o. 9x) was 135%, the “Survival time, Geom. mean” value ([6]; 12 mg/kg/day p.o. 9x) was 15.5 days and the “Tumor mass (%) of control” value ([6]; 12 mg/kg/day p.o. 9x) was 84%. For the same compound, the “Tumor mass, Arithm. mean” value ([6]; 12 mg/kg/day p.o. 9x) was 2.23 g, the “Significance of mean survival time increase in comparison with untreated control (p≦0.01), in words” value ([6]; Tab. 7-2) was “atatistically highly significant” and the “Survival (in % of control)” value ([7]; 3 mg/kg/day p.o. 9x) was 143%. The “Survival time, Geom. mean” value ([7]; 3 mg/kg/day p.o. 9x) was 12.7 days, the “Total ascitocrit (%) of control” value ([7]; 3 mg/kg/day p.o. 9x) was 100% and the “Total ascitocrit (mass of cell fraction of a tumor), Arithm. mean” value ([7]; 3 mg/kg/day p.o. 9x) was 0.68 g. For the same compound, the “Tumor mass (%) of control” value ([7]; 3 mg/kg/day p.o. 9x) was 110%, the “Tumor mass, Arithm. mean” value ([7]; 3 mg/kg/day p.o. 9x) was 4.32 g and the “Survival (in % of control)” value ([7]; 6 mg/kg/day p.o. 9x) was 153%. For the same compound, the “Survival time, Geom. mean” value ([7]; 6 mg/kg/day p.o. 9x) was 13.6 days, the “Total ascitocrit (%) of control” value ([7]; 6 mg/kg/day p.o. 9x) was 99% and the “Total ascitocrit (mass of cell fraction of a tumor), Arithm. mean” value ([7]; 6 mg/kg/day p.o. 9x) was 0.68 g. For the same compound, the “Tumor mass (%) of control” value ([7]; 6 mg/kg/day p.o. 9x) was 78%, the “Tumor mass, Arithm. mean” value ([7]; 6 mg/kg/day p.o. 9x) was 3.07 g and the “Survival (in % of control)” value ([7]; 12 mg/kg/day p.o. 9x) was 134%. The “Survival time, Geom. mean” value ([7]; 12 mg/kg/day p.o. 9x) was 11.9 days, the “Total ascitocrit (%) of control” value ([7]; 12 mg/kg/day p.o. 9x) was 64% and the “Total ascitocrit (mass of cell fraction of a tumor), Arithm. mean” value ([7]; 12 mg/kg/day p.o. 9x) was 0.44 g. The “Tumor mass (%) of control” value ([7]; 12 mg/kg/day p.o. 9x) was 47%, the “Tumor mass, Arithm. mean” value ([7]; 12 mg/kg/day p.o. 9x) was 1.86 g and the “Evaluation of antitumor effect (survival time versus control), in words” value ([7]; p.o.×9, Platidiam 8 and 4 mg/kg s.c.×1, Tab. 8.1) was “didnot increase the survival time statistically significant”.
